In brackets after ≈: the same amount, converted by molar mass. Activity calls are given as the source filed them.
Columns and labels:
[1] = Inhibition of NLRP3 inflammasome pathway in human THP-1 cells assessed as inhibition of LPS/MSU-induced IL-1beta secretion
[2] = Aqueous solubility of the compound in pH 7.4 PBS buffer; format: physicochemical
[3] = Plasma stability in human plasma assessed as compound remaining measured after 5 mins; format: ADME, cell-free; conditions: read-out: Stability
[4] = Plasma stability in human plasma assessed as compound remaining measured after 15 mins; format: ADME, cell-free; conditions: read-out: Stability
[5] = Plasma stability in human plasma assessed as compound remaining measured after 30 mins; format: ADME, cell-free; conditions: read-out: Stability
[6] = Plasma stability in human plasma assessed as compound remaining measured after 60 mins; format: ADME, cell-free; conditions: read-out: Stability
[7] = Plasma stability in human plasma assessed as compound remaining measured after 120 mins; format: ADME, cell-free; conditions: read-out: Stability
[8] = Plasma stability in human plasma assessed as half life; format: ADME, cell-free
[9] = Plasma stability in human plasma assessed as compound remaining measured immediately; format: ADME, cell-free; conditions: read-out: Stability
Cytochrome P450 1A2 = target: T1, Cytochrome P450 1A2 (Homo sapiens, UniProt P05177); assay: Inhibition of CYP1A2 (unknown origin); format: ADME
T1 sequence (P05177 whole entry): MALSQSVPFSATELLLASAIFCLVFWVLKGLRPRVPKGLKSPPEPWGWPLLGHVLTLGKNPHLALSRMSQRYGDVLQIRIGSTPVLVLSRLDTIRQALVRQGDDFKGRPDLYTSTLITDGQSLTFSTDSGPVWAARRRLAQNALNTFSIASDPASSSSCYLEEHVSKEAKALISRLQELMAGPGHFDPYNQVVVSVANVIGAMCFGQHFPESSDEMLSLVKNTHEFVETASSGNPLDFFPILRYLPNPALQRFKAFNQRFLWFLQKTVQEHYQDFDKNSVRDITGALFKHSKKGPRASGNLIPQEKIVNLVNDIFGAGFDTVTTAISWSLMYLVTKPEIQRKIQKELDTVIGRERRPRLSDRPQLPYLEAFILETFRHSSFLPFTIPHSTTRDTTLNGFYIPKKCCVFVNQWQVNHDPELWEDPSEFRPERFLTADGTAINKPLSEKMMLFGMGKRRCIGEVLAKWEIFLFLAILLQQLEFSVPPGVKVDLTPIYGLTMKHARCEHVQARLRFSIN

Cytochrome P450 2C9 = Cytochrome P450 2C9 (Homo sapiens, UniProt P11712); assay: Inhibition of CYP2C9 (unknown origin); format: ADME
Cytochrome P450 2C9, sequence (P11712 whole entry): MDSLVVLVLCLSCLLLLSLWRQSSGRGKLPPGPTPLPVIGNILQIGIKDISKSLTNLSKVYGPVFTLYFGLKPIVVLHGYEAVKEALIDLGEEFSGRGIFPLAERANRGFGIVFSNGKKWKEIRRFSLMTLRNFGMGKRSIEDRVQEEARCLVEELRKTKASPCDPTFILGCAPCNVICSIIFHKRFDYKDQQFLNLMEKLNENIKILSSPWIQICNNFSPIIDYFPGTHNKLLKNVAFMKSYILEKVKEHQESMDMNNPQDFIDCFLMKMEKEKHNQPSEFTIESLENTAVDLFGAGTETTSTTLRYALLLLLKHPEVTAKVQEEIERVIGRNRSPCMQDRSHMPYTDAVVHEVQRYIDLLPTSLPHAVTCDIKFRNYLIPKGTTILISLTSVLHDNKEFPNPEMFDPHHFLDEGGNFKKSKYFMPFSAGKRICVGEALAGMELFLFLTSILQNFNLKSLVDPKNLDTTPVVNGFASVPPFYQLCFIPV

Cytochrome P450 2C19 = Cytochrome P450 2C19 (Homo sapiens, UniProt P33261); assay: Inhibition of CYP2C19 (unknown origin); format: ADME
Cytochrome P450 2C19, sequence (P33261 whole entry): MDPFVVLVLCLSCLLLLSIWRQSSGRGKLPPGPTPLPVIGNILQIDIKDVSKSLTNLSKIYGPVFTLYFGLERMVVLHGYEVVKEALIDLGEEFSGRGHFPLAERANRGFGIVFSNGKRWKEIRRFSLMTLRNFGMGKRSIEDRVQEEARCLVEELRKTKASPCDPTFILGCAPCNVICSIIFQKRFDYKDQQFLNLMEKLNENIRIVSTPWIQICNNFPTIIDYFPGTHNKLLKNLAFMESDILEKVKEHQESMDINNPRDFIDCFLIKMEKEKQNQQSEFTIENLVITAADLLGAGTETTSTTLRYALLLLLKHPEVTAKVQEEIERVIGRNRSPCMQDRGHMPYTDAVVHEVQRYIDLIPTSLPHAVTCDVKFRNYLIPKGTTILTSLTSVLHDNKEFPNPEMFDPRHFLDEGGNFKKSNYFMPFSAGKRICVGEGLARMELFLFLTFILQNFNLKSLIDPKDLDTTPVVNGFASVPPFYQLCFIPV

Cytochrome P450 3A4 [10] = target: T2, Cytochrome P450 3A4 (Homo sapiens, UniProt P08684); assay: Inhibition of CYP3A4 (unknown origin) using midazolam as substrate; format: ADME
T2 sequence (P08684 whole entry): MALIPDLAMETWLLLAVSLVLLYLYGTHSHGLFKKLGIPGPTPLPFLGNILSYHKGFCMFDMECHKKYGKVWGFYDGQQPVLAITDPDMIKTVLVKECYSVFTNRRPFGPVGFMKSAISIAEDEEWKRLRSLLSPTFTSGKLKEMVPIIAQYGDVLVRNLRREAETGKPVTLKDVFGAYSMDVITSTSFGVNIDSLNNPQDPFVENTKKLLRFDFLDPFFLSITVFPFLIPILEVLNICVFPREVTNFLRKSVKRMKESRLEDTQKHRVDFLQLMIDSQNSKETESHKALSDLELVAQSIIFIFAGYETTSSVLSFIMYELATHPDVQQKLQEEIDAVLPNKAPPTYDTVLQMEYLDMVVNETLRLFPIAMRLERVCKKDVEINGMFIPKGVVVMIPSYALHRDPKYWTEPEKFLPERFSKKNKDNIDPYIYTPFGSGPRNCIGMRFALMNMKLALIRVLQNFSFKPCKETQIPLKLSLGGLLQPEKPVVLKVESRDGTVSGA

Cytochrome P450 3A4 [11] = target: T2, Cytochrome P450 3A4; assay: Inhibition of CYP3A4 (unknown origin) using testosterone as substrate; format: ADME
Cytochrome P450 2D6 = Cytochrome P450 2D6 (Homo sapiens, UniProt P10635); assay: Inhibition of CYP2D6 (unknown origin); format: ADME
Cytochrome P450 2D6, sequence (P10635 whole entry): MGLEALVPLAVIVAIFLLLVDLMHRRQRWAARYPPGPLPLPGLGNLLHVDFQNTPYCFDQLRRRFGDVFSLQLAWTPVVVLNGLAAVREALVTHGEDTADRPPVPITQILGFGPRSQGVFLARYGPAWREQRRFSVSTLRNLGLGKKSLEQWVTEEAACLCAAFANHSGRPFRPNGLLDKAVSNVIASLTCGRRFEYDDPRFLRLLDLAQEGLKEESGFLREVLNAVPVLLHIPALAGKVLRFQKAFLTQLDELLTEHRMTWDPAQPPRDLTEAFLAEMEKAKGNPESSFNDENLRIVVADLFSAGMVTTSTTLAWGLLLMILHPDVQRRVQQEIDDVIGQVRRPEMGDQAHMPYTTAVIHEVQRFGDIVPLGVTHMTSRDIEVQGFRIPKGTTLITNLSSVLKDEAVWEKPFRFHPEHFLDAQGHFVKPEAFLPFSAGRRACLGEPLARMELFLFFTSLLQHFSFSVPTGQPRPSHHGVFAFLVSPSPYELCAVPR

HEK-293T [12] = assay: Cytotoxicity against human HEK293T cells assessed as cell viability at 0.39 to 50 uM measured after 24 hrs by CCK8 assay; format: toxicity, cell-based; conditions: dose 0.39-50 µM
THP-1-M [13] = assay: Effect on ROS generation in Nigericin-induced human THP-1-M cells assessed as effect on increase in ROS generation by MitoSOX staining based confocal microscopic analysis; format: functional, cell-based
THP-1-M [14] = assay: Effect on mitochondrial damage in Nigericin-induced human THP-1-M cells by MitoTracker staining based confocal microscopic analysis; format: functional, cell-based
BMDM [15] = assay: Effect on NLPR3 expression in Nigericin-induced in C57BL/6J mouse BMDM cells at 3 to 30 uM by immunoblotting analysis; format: functional, cell-based; conditions: dose 3-30 µM
BMDM [16] = assay: Effect on pro-caspase 1 expression in Nigericin-induced in C57BL/6J mouse BMDM cells at 3 to 30 uM by immunoblotting analysis; format: functional, cell-based; conditions: dose 3-30 µM
BMDM [17] = assay: Effect on pro-IL-1beta expression in Nigericin-induced in C57BL/6J mouse BMDM cells at 3 to 30 uM by immunoblotting analysis; format: functional, cell-based; conditions: dose 3-30 µM
BMDM [18] = assay: Effect on ASC expression in Nigericin-induced in C57BL/6J mouse BMDM cells at 3 to 30 uM by immunoblotting analysis; format: functional, cell-based; conditions: dose 3-30 µM
BMDM [19] = assay: Effect on NEK7 expression in Nigericin-induced in C57BL/6J mouse BMDM cells at 3 to 30 uM by immunoblotting analysis; format: functional, cell-based; conditions: dose 3-30 µM
Mus musculus [20] = assay: Anti-inflammatory activity against MSU-induced peritonitis mouse model assessed as reduction in IL-1beta secretion in peritoneal cavity treated by gavage 30 mins before MSU induction measured after 6 hrs modeling by ELISA; format: functional, organism-based; conditions: dose 5-30 mg/kg, route po
Mus musculus [21] = assay: Anti-inflammatory activity against MSU-induced peritonitis mouse model assessed as reduction in IL-1beta secretion in peritoneal cavity at 30 mg/kg, treated by gavage 30 mins before MSU induction measured after 6 hrs modeling by ELISA; format: functional, organism-based; conditions: route po
Mus musculus [22] = assay: Anti-arthritis activity against MSU-induced arthritis mouse model assessed as decrease in von Frey pain threshold treated by gavage 30 mins before MSU induction measured for day 3 to day 7; format: functional, organism-based; conditions: dose 5-30 mg/kg, route po, time 3-7 day
Mus musculus [23] = assay: Anti-arthritis activity against MSU-induced arthritis mouse model assessed as decrease in decrease in swelling in joint treated by gavage 30 mins before MSU induction measured for 7 days; format: functional, organism-based; conditions: dose 5-30 mg/kg, route po, time 7.0 day
Mus musculus [24] = assay: Anti-inflammatory activity against MSU-induced peritonitis mouse model assessed as reduction in IL-1beta secretion in peritoneal cavity at 10 mg/kg, treated by gavage 30 mins before MSU induction measured after 6 hrs modeling by ELISA; format: functional, organism-based
HEK-293T [25] = assay: Cytotoxicity against human HEK293T cells assessed as cell viability at 50 uM measured after 24 hrs by CCK8 assay; format: toxicity, cell-based

Q: For `Cc1ccc(CN2C(=S)N(c3ccc(C#N)c(C(F)(F)F)c3)C(=O)C2(C)C)cc1C`, which IC50 [1] is on record?
A: > 20 µM

Q: Which results are given for `COc1ccc(N2C(=O)/C(=C/c3ccccc3C(F)(F)F)SC2=S)cc1`?
A: solubility [2]: 0.012 µM (≈ 0.00475 µg/mL); remaining at 5 min [3]: 112%; remaining at 0.25 h [4]: 106%; remaining at 0.5 h [5]: 23.9%; remaining at 1 h [6]: 4.34%; remaining at 2 h [7]: 3.67%; half-life [8]: 20.3 min; remaining at 0 min [9]: 100%; IC50 (Cytochrome P450 1A2): 5.2 µM; IC50 (Cytochrome P450 2C9): 4.65 µM; IC50 (Cytochrome P450 2C19): 6.87 µM; IC50 (Cytochrome P450 3A4 [10]): > 10 µM; IC50 (Cytochrome P450 3A4 [11]): > 10 µM; IC50 (Cytochrome P450 2D6): > 10 µM

Q: With `CC(C)(C)c1ccc(N2C(=O)C(C)(C)N(Cc3ccc4ncoc4c3)C2=S)cc1` as the molecule, how does the IC50 [1] read?
A: > 20 µM

Q: Which IC50 [1] does the source give for `COc1ccc(N2C(=O)C(C)(C)N(Cc3cccc(C(F)(F)F)c3)C2=S)cc1` here?
A: > 20 µM

Q: Which remaining at 5 min [3] does the source give for `CC(C)[N+](C)(CCOC(=O)C1c2ccccc2Oc2ccccc21)C(C)C` [PROPANTHELINE] here?
A: 88%

Q: What about the remaining at 0.25 h [4] of the same molecule?
A: 58.5%

Q: What about the remaining at 0.5 h [5] of the same molecule?
A: 37.4%

Q: What about the remaining at 1 h [6] of the same molecule?
A: 10.7%

Q: And the remaining at 2 h [7]?
A: 2.91%

Q: What about the half-life [8] of the same molecule?
A: 23.2 min

Q: For `CCCSc1ccc2nc(NC(=O)OC)[nH]c2c1` [ALBENDAZOLE], which solubility [2] is on record?
A: 1.65 µM (≈ 0.438 µg/mL)

Q: For `CC(C)(C)c1ccc(N2C(=O)C(C)(C)N(Cc3ccc(C(=O)O)cc3)C2=S)cc1`, which IC50 [1] is on record?
A: > 20 µM

Q: Which IC50 [1] does the source give for `COc1ccc(N2C(=O)C(C)(C)N(Cc3cc(C(F)(F)F)ccc3C(F)(F)F)C2=S)cc1` here?
A: > 20 µM

Q: For `CC1(C)C(=O)N(c2ccc(C(F)(F)F)cc2)C(=S)N1Cc1ccc(S(N)(=O)=O)c(F)c1`, which IC50 [1] is on record?
A: 4.8 µM

Q: And the Activity (HEK-293T [12])?
A: Non-Toxic

Q: What about the solubility [2] of the same molecule?
A: 53.7 µM (≈ 25.5 µg/mL)

Q: What about the remaining at 5 min [3] of the same molecule?
A: 100%

Q: And the remaining at 0.25 h [4]?
A: 99.5%

Q: And the remaining at 0.5 h [5]?
A: 104%

Q: And the remaining at 1 h [6]?
A: 103%

Q: And the remaining at 2 h [7]?
A: 96.9%

Q: And the remaining at 0 min [9]?
A: 100%

Q: What about the IC50 (Cytochrome P450 1A2) of the same molecule?
A: > 100 µM

Q: What about the IC50 (Cytochrome P450 2C9) of the same molecule?
A: > 10 µM

Q: What about the IC50 (Cytochrome P450 2C19) of the same molecule?
A: > 10 µM

Q: And the IC50 (Cytochrome P450 3A4 [10])?
A: > 10 µM

Q: And the IC50 (Cytochrome P450 3A4 [11])?
A: > 10 µM

Q: What about the IC50 (Cytochrome P450 2D6) of the same molecule?
A: > 10 µM

Q: What about the Activity (THP-1-M [13]) of the same molecule?
A: inactive

Q: What about the Activity (THP-1-M [14]) of the same molecule?
A: inactive

Q: And the Activity (BMDM [15])?
A: inactive

Q: What about the Activity (BMDM [16]) of the same molecule?
A: inactive

Q: What about the Activity (BMDM [17]) of the same molecule?
A: inactive

Q: What about the Activity (BMDM [18]) of the same molecule?
A: inactive

Q: And the Activity (BMDM [19])?
A: inactive

Q: And the Activity (Mus musculus [20])?
A: Dose-Dependent Effect

Q: What about the Activity (Mus musculus [21]) of the same molecule?
A: Active

Q: What about the Activity (Mus musculus [22]) of the same molecule?
A: Dose-Dependent Effect

Q: And the Activity (Mus musculus [23])?
A: Dose-Dependent Effect

Q: For `COc1ccc(N2C(=O)C(C)(C)N(C(=O)c3ccccc3C(F)(F)F)C2=S)cc1`, which IC50 [1] is on record?
A: > 50 µM

Q: For `c1ccc(-c2nc[nH]c2-c2ccccc2)cc1`, which solubility [2] is on record?
A: 13.6 µM (≈ 3 µg/mL)

Q: Which IC50 [1] does the source give for `COc1ccc(N2C(=O)C(C)(C)N(Cc3ccc(C(F)(F)F)cc3)C2=S)cc1` here?
A: 13 µM

Q: With `CC(C)(O)c1coc(S(=O)(=O)NC(=O)Nc2c3c(cc4c2CCC4)CCC3)c1` as the molecule, how does the Activity (Mus musculus [24]) read?
A: Active

Q: What does the source list for `CC1(C)C(=O)N(c2ccc(Oc3ccccc3)cc2)C(=S)N1Cc1ccc(S(N)(=O)=O)c(F)c1`?
A: IC50 [1]: 5.3 µM; Activity (HEK-293T [25]): Toxic; solubility [2]: 2.56 µM (≈ 1.28 µg/mL); remaining at 5 min [3]: 97.2%; remaining at 0.25 h [4]: 101%; remaining at 0.5 h [5]: 92.3%; remaining at 1 h [6]: 101%; remaining at 2 h [7]: 93.3%; remaining at 0 min [9]: 100%; IC50 (Cytochrome P450 1A2): > 100 µM; IC50 (Cytochrome P450 2C9): 7.73 µM; IC50 (Cytochrome P450 2C19): 4.43 µM; IC50 (Cytochrome P450 3A4 [10]): > 10 µM; IC50 (Cytochrome P450 3A4 [11]): > 10 µM; IC50 (Cytochrome P450 2D6): > 10 µM

Q: Which IC50 [1] does the source give for `CC1(C)C(=O)N(c2cccnc2)C(=S)N1Cc1ccc(S(N)(=O)=O)c(F)c1` here?
A: > 20 µM
